{"source": "the kinase profiling compilation of Christmann-Franck et al. (2016)", "assay_in_all_cases": "radiometric filter-binding kinase assay", "key": {"[1]": {"system": "AKT1 (human), P31749 [S473D]"}, "BRSK2 (human)": {"biological_target": "BRSK2 (human) (UniProt Q8IWQ3)", "sequence (Q8IWQ3 whole entry, looked up)": "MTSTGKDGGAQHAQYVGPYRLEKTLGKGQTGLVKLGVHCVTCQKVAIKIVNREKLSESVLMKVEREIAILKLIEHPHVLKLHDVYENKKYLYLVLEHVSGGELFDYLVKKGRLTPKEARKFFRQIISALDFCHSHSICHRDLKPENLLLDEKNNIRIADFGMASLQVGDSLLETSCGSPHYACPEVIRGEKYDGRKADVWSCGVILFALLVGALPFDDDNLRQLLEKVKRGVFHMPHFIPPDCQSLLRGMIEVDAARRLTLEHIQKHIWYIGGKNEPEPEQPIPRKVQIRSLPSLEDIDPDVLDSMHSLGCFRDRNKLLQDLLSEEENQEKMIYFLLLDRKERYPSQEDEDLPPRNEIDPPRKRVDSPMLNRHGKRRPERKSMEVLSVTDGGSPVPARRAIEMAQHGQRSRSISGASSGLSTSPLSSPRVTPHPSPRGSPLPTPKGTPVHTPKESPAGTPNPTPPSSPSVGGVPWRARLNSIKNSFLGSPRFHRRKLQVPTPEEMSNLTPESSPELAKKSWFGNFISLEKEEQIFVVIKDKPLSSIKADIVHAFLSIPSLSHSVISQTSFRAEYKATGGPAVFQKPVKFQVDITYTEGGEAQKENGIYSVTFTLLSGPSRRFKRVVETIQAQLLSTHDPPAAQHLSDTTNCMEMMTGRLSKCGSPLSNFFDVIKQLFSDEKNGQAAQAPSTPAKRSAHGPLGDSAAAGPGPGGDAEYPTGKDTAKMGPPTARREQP"}, "CSNK2A1 (human)": {"biological_target": "CSNK2A1 (human) (UniProt P68400)"}, "DYRK1A (human)": {"biological_target": "DYRK1A (human) (UniProt Q13627)"}, "DYRK3 (human)": {"biological_target": "DYRK3 (human) (UniProt O43781)", "sequence (O43781 whole entry, looked up)": "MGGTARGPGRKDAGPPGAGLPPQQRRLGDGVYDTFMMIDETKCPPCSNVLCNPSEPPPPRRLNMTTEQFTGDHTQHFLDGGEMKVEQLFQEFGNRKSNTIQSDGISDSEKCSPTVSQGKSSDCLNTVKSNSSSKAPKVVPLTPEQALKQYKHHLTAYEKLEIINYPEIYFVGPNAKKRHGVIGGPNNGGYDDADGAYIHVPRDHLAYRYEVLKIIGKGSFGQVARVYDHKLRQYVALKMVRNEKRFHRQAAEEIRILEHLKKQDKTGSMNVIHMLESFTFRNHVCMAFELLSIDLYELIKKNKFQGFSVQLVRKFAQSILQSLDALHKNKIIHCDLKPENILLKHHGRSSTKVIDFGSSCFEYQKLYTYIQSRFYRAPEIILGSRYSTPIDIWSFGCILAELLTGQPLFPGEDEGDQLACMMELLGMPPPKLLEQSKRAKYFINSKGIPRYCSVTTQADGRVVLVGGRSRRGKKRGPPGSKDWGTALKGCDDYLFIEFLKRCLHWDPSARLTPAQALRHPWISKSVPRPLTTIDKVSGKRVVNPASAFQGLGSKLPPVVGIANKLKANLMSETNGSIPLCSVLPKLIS"}, "EPHB3 (human)": {"biological_target": "EPHB3 (human) (UniProt P54753)"}, "IKBKB (human)": {"biological_target": "IKBKB (human) (UniProt O14920)"}, "IKBKE (human)": {"biological_target": "IKBKE (human) (UniProt Q14164)"}, "MAPK11 (human)": {"biological_target": "MAPK11 (human) (UniProt Q15759)", "sequence (Q15759 whole entry, looked up)": "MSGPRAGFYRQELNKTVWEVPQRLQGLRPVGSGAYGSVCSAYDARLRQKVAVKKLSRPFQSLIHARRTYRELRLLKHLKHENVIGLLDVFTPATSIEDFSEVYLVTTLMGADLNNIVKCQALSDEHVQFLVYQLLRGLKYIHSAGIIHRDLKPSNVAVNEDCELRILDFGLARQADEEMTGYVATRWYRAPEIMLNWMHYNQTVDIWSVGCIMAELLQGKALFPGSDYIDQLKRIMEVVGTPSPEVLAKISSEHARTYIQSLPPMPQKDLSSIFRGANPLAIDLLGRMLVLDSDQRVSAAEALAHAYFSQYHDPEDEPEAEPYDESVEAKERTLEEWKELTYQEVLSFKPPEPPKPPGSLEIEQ"}, "MAPK12 (human)": {"biological_target": "MAPK12 (human) (UniProt P53778)"}, "MAPK14 (human)": {"biological_target": "MAPK14 (human) (UniProt Q16539)", "sequence (Q16539 whole entry, looked up)": "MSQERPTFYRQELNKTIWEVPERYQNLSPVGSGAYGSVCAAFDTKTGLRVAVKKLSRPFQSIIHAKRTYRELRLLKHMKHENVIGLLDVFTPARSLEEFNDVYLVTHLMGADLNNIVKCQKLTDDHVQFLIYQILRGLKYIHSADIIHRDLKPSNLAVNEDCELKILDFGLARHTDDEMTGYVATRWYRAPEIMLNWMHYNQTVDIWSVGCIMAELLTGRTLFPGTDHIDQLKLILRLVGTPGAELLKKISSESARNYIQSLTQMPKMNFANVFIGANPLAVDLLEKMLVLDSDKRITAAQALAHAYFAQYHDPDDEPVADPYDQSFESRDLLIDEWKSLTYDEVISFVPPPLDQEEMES"}, "MAPK3 (human)": {"biological_target": "MAPK3 (human) (UniProt P27361)", "sequence (P27361 whole entry, looked up)": "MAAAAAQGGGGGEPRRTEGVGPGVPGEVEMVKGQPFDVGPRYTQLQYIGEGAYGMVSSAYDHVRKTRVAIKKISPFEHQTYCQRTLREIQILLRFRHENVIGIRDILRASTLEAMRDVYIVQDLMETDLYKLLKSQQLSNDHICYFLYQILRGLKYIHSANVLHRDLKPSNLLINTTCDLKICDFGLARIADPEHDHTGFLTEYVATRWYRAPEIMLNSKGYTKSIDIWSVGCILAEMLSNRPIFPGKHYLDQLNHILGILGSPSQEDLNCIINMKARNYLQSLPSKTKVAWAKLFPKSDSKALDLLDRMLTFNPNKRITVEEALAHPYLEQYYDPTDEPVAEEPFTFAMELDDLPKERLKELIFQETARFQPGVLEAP"}, "MAPK8 (human)": {"biological_target": "MAPK8 (human) (UniProt P45983)", "sequence (P45983 whole entry, looked up)": "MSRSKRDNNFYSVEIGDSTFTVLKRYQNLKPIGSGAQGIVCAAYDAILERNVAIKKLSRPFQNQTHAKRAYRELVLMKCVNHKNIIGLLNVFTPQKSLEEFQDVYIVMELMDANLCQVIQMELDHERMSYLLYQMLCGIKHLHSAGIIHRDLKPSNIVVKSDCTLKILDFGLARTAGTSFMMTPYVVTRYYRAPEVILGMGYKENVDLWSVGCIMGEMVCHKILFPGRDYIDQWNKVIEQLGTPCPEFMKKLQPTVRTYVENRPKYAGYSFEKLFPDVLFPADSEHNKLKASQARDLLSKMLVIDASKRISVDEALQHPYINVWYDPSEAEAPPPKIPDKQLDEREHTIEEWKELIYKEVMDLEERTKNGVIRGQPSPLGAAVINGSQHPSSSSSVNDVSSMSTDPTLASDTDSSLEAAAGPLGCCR"}, "MAPKAPK5 (human)": {"biological_target": "MAPKAPK5 (human) (UniProt Q8IW41)", "sequence (Q8IW41 whole entry, looked up)": "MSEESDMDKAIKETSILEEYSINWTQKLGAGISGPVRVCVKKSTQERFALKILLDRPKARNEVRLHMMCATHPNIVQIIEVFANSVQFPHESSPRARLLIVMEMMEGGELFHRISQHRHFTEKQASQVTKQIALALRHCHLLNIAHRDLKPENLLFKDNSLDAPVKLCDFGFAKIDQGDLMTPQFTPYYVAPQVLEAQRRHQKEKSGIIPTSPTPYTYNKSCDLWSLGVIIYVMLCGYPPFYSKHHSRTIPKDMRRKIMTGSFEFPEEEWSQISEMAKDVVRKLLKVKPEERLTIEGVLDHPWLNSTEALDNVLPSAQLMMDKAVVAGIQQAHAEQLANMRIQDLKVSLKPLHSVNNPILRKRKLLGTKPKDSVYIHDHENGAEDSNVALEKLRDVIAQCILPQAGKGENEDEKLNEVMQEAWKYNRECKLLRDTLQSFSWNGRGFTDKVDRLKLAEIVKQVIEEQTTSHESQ"}, "MKNK2 (human)": {"biological_target": "MKNK2 (human) (UniProt Q9HBH9)"}, "PAK4 (human)": {"biological_target": "PAK4 (human) (UniProt O96013)", "sequence (O96013 whole entry, looked up)": "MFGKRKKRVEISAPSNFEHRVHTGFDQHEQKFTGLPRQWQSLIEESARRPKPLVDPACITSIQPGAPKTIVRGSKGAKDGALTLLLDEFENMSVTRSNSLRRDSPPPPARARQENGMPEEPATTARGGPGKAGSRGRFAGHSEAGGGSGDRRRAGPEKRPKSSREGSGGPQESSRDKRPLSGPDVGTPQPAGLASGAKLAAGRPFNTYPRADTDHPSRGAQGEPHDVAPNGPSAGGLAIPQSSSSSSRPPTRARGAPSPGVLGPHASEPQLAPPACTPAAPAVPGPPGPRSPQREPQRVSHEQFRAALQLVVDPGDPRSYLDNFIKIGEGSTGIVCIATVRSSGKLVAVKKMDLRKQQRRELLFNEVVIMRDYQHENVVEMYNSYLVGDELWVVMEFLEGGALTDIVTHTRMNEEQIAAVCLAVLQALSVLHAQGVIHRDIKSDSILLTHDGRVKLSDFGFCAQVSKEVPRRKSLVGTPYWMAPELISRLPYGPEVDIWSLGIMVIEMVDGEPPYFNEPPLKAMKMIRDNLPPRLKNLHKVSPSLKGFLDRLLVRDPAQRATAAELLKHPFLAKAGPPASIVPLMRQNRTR"}, "PIM1 (human)": {"biological_target": "PIM1 (human) (UniProt P11309)"}, "PIM2 (human)": {"biological_target": "PIM2 (human) (UniProt Q9P1W9)"}, "PIM3 (human)": {"biological_target": "PIM3 (human) (UniProt Q86V86)"}, "PLK1 (human)": {"biological_target": "PLK1 (human) (UniProt P53350)"}, "ROCK2 (rat)": {"system": "ROCK2 (rat)", "conditions": "accession and sequence are those of the human protein"}, "RPS6KA1 KD1 KD2 (human)": {"biological_target": "RPS6KA1 KD1 KD2 (human) (UniProt Q15418)"}, "RPS6KA3 KD1 KD2 (human)": {"biological_target": "RPS6KA3 KD1 KD2 (human) (UniProt P51812)"}, "[2]": {"system": "RPS6KB1 (human), P23443 [T412E]", "sequence (P23443 whole entry T412E, looked up)": "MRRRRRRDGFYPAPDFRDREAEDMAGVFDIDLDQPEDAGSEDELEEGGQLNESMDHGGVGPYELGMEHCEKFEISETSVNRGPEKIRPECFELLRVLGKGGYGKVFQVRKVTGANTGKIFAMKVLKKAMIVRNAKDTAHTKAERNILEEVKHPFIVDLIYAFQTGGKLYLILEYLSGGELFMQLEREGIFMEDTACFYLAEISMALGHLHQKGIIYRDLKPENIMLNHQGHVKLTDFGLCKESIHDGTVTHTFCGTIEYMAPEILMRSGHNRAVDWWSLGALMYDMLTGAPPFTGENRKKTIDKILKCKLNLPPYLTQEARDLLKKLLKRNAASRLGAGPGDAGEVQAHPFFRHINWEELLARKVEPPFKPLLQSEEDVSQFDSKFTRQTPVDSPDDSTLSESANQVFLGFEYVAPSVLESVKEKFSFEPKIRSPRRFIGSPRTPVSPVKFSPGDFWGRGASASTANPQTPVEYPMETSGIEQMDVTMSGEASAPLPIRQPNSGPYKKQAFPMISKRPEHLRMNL"}, "[3]": {"system": "SGK1 (human), O00141 [S422D]"}, "STK3 (human)": {"biological_target": "STK3 (human) (UniProt Q13188)", "sequence (Q13188 whole entry, looked up)": "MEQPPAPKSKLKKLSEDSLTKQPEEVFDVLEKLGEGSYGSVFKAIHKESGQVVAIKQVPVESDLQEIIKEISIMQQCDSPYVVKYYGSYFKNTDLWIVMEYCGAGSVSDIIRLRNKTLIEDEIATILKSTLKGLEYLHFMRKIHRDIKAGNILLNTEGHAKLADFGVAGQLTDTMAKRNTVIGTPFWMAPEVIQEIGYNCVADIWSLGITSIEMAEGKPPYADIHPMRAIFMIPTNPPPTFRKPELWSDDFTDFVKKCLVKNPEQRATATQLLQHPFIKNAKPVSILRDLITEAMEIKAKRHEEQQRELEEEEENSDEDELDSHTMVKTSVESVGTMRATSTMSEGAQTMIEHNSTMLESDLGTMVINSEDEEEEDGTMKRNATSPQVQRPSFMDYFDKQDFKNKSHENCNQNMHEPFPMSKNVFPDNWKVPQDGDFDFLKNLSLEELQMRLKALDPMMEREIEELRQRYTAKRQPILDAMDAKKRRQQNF"}, "TBK1 (human)": {"biological_target": "TBK1 (human) (UniProt Q9UHD2)"}}, "data": [{"molecule": "C/C(=C1/C(=O)Nc2ccc(NC(N)=O)cc21)c1ccc[nH]1", "values": [{"measurement": "residual activity", "setting": "[1]; compound 0.001 µM", "result": 85, "unit": "%"}, {"measurement": "residual activity", "setting": "[1]; compound 0.01 µM", "result": 76, "unit": "%"}, {"measurement": "residual activity", "setting": "BRSK2 (human); compound 0.001 µM", "result": 59, "unit": "%"}, {"measurement": "residual activity", "setting": "BRSK2 (human); compound 0.01 µM", "result": 21, "unit": "%"}, {"measurement": "residual activity", "setting": "BRSK2 (human); compound 0.1 µM", "result": 12, "unit": "%"}, {"measurement": "residual activity", "setting": "CSNK2A1 (human); compound 0.001 µM", "result": 92, "unit": "%"}, {"measurement": "residual activity", "setting": "CSNK2A1 (human); compound 0.01 µM", "result": 91, "unit": "%"}, {"measurement": "residual activity", "setting": "CSNK2A1 (human); compound 0.1 µM", "result": 86, "unit": "%"}, {"measurement": "residual activity", "setting": "DYRK1A (human); compound 0.001 µM", "result": 110, "unit": "%"}, {"measurement": "residual activity", "setting": "DYRK1A (human); compound 0.01 µM", "result": 91, "unit": "%"}, {"measurement": "residual activity", "setting": "DYRK1A (human); compound 0.1 µM", "result": 67, "unit": "%"}, {"measurement": "residual activity", "setting": "DYRK3 (human); compound 0.001 µM", "result": 83, "unit": "%"}, {"measurement": "residual activity", "setting": "DYRK3 (human); compound 0.01 µM", "result": 74, "unit": "%"}, {"measurement": "residual activity", "setting": "DYRK3 (human); compound 0.1 µM", "result": 33, "unit": "%"}, {"measurement": "residual activity", "setting": "EPHB3 (human); compound 0.001 µM", "result": 114, "unit": "%"}, {"measurement": "residual activity", "setting": "EPHB3 (human); compound 0.01 µM", "result": 99, "unit": "%"}, {"measurement": "residual activity", "setting": "EPHB3 (human); compound 0.1 µM", "result": 101, "unit": "%"}, {"measurement": "residual activity", "setting": "IKBKB (human); compound 0.001 µM", "result": 76, "unit": "%"}, {"measurement": "residual activity", "setting": "IKBKB (human); compound 0.01 µM", "result": 74, "unit": "%"}, {"measurement": "residual activity", "setting": "IKBKE (human); compound 0.001 µM", "result": 85, "unit": "%"}, {"measurement": "residual activity", "setting": "IKBKE (human); compound 0.01 µM", "result": 84, "unit": "%"}, {"measurement": "residual activity", "setting": "IKBKE (human); compound 0.1 µM", "result": 69, "unit": "%"}, {"measurement": "residual activity", "setting": "MAPK11 (human); compound 0.001 µM", "result": 104, "unit": "%"}, {"measurement": "residual activity", "setting": "MAPK11 (human); compound 0.01 µM", "result": 100, "unit": "%"}, {"measurement": "residual activity", "setting": "MAPK11 (human); compound 0.1 µM", "result": 105, "unit": "%"}, {"measurement": "residual activity", "setting": "MAPK12 (human); compound 0.001 µM", "result": 89, "unit": "%"}, {"measurement": "residual activity", "setting": "MAPK12 (human); compound 0.01 µM", "result": 87, "unit": "%"}, {"measurement": "residual activity", "setting": "MAPK12 (human); compound 0.1 µM", "result": 82, "unit": "%"}, {"measurement": "residual activity", "setting": "MAPK14 (human); compound 0.001 µM", "result": 87, "unit": "%"}, {"measurement": "residual activity", "setting": "MAPK14 (human); compound 0.01 µM", "result": 86, "unit": "%"}, {"measurement": "residual activity", "setting": "MAPK14 (human); compound 0.1 µM", "result": 84, "unit": "%"}, {"measurement": "residual activity", "setting": "MAPK3 (human); compound 0.001 µM", "result": 97, "unit": "%"}, {"measurement": "residual activity", "setting": "MAPK3 (human); compound 0.01 µM", "result": 89, "unit": "%"}, {"measurement": "residual activity", "setting": "MAPK3 (human); compound 0.1 µM", "result": 82, "unit": "%"}, {"measurement": "residual activity", "setting": "MAPK8 (human); compound 0.001 µM", "result": 114, "unit": "%"}, {"measurement": "residual activity", "setting": "MAPK8 (human); compound 0.01 µM", "result": 117, "unit": "%"}, {"measurement": "residual activity", "setting": "MAPK8 (human); compound 0.1 µM", "result": 106, "unit": "%"}, {"measurement": "residual activity", "setting": "MAPKAPK5 (human); compound 0.001 µM", "result": 100, "unit": "%"}, {"measurement": "residual activity", "setting": "MAPKAPK5 (human); compound 0.01 µM", "result": 90, "unit": "%"}, {"measurement": "residual activity", "setting": "MAPKAPK5 (human); compound 0.1 µM", "result": 94, "unit": "%"}, {"measurement": "residual activity", "setting": "MKNK2 (human); compound 0.001 µM", "result": 93, "unit": "%"}, {"measurement": "residual activity", "setting": "MKNK2 (human); compound 0.01 µM", "result": 86, "unit": "%"}, {"measurement": "residual activity", "setting": "MKNK2 (human); compound 0.1 µM", "result": 78, "unit": "%"}, {"measurement": "residual activity", "setting": "PAK4 (human); compound 0.001 µM", "result": 80, "unit": "%"}, {"measurement": "residual activity", "setting": "PAK4 (human); compound 0.01 µM", "result": 85, "unit": "%"}, {"measurement": "residual activity", "setting": "PAK4 (human); compound 0.1 µM", "result": 76, "unit": "%"}, {"measurement": "residual activity", "setting": "PIM1 (human); compound 0.001 µM", "result": 97, "unit": "%"}, {"measurement": "residual activity", "setting": "PIM1 (human); compound 0.01 µM", "result": 98, "unit": "%"}, {"measurement": "residual activity", "setting": "PIM1 (human); compound 0.1 µM", "result": 69, "unit": "%"}, {"measurement": "residual activity", "setting": "PIM2 (human); compound 0.01 µM", "result": 92, "unit": "%"}, {"measurement": "residual activity", "setting": "PIM2 (human); compound 0.1 µM", "result": 65, "unit": "%"}, {"measurement": "residual activity", "setting": "PIM3 (human); compound 0.001 µM", "result": 96, "unit": "%"}, {"measurement": "residual activity", "setting": "PIM3 (human); compound 0.01 µM", "result": 73, "unit": "%"}, {"measurement": "residual activity", "setting": "PIM3 (human); compound 0.1 µM", "result": 25, "unit": "%"}, {"measurement": "residual activity", "setting": "PLK1 (human); compound 0.001 µM", "result": 86, "unit": "%"}, {"measurement": "residual activity", "setting": "PLK1 (human); compound 0.01 µM", "result": 82, "unit": "%"}, {"measurement": "residual activity", "setting": "PLK1 (human); compound 0.1 µM", "result": 72, "unit": "%"}, {"measurement": "residual activity", "setting": "ROCK2 (rat); compound 0.001 µM", "result": 88, "unit": "%"}, {"measurement": "residual activity", "setting": "ROCK2 (rat); compound 0.01 µM", "result": 90, "unit": "%"}, {"measurement": "residual activity", "setting": "ROCK2 (rat); compound 0.1 µM", "result": 84, "unit": "%"}, {"measurement": "residual activity", "setting": "RPS6KA1 KD1 KD2 (human); compound 0.001 µM", "result": 89, "unit": "%"}, {"measurement": "residual activity", "setting": "RPS6KA1 KD1 KD2 (human); compound 0.01 µM", "result": 75, "unit": "%"}, {"measurement": "residual activity", "setting": "RPS6KA1 KD1 KD2 (human); compound 0.1 µM", "result": 24, "unit": "%"}, {"measurement": "residual activity", "setting": "RPS6KA3 KD1 KD2 (human); compound 0.001 µM", "result": 82, "unit": "%"}, {"measurement": "residual activity", "setting": "RPS6KA3 KD1 KD2 (human); compound 0.01 µM", "result": 65, "unit": "%"}, {"measurement": "residual activity", "setting": "RPS6KA3 KD1 KD2 (human); compound 0.1 µM", "result": 19, "unit": "%"}, {"measurement": "residual activity", "setting": "[2]; compound 0.001 µM", "result": 95, "unit": "%"}, {"measurement": "residual activity", "setting": "[2]; compound 0.01 µM", "result": 91, "unit": "%"}, {"measurement": "residual activity", "setting": "[2]; compound 0.1 µM", "result": 83, "unit": "%"}, {"measurement": "residual activity", "setting": "[3]; compound 0.001 µM", "result": 98, "unit": "%"}, {"measurement": "residual activity", "setting": "[3]; compound 0.01 µM", "result": 86, "unit": "%"}, {"measurement": "residual activity", "setting": "[3]; compound 0.1 µM", "result": 58, "unit": "%"}, {"measurement": "residual activity", "setting": "STK3 (human); compound 0.001 µM", "result": 83, "unit": "%"}, {"measurement": "residual activity", "setting": "STK3 (human); compound 0.01 µM", "result": 36, "unit": "%"}, {"measurement": "residual activity", "setting": "STK3 (human); compound 0.1 µM", "result": 10, "unit": "%"}, {"measurement": "residual activity", "setting": "TBK1 (human); compound 0.001 µM", "result": 99, "unit": "%"}, {"measurement": "residual activity", "setting": "TBK1 (human); compound 0.01 µM", "result": 83, "unit": "%"}, {"measurement": "residual activity", "setting": "TBK1 (human); compound 0.1 µM", "result": 43, "unit": "%"}]}]}
